# Assays:
# HCT-15 = test: Cytotoxicity against human HCT15 cells by sulforhodamine B assay; assay type: functional, cell-based
# SK-OV-3 = test: Cytotoxicity against human SKOV3 cells by sulforhodamine B assay; assay type: functional, cell-based
# BV-2 [1] = test: Antiinflammatory activity against mouse BV2 cells assessed as inhibition of LPS-induced NO production incubated for 30 mins prior to LPS-challenge measured after 24 hrs by Griess assay; assay type: functional, cell-based
# BV-2 [2] = test: Cytotoxicity against mouse BV2 cells by MTT assay; assay type: cell-based
# A549 = test: Cytotoxicity against human A549 cells by sulforhodamine B assay; assay type: functional, cell-based
# SK-MEL-2 = test: Cytotoxicity against human SK-MEL-2 cells by sulforhodamine B assay; assay type: functional, cell-based
structure (smiles),measurement,setting,value
C=C1C[C@]23C[C@@]1(O)CC[C@H]2c1cc2c(C(=O)O)coc2c(C)c1[C@@H]3C(=O)O,IC50,HCT-15,6.79 µM
same,IC50,SK-OV-3,4.83 µM
same,IC50,BV-2 [1],32.9 µM
same,Activity,BV-2 [2],Non-toxic
same,IC50,A549,15.7 µM
same,IC50,SK-MEL-2,8.36 µM
